Source: patent US20230133393A1, “DIBORIDE MICROPATTERNED SURFACES FOR CELL CULTURE” (University of Houston System, priority 2020, published 2023)
“Also recorded” adds a separate entry of the source.

Test system: SKOV3 cells
Test: Effect of SAHA on SKOV3 3D aggregates and cellular bridges cultured on Si—TiB2 substrate
Format: cell-based
Method: Cell culture of ovarian cancer cell lines: SKOV3 and OVCAR3 cell lines were cultured in Cancer Media (CM) ([…] with glutamine (02-0205 VWR Life Science), 1% antibiotics (Sigma-Aldrich A5955), and 0.1% insulin (ABM TM053)). For cell culture on substrates CM was supplemented with 10 ng/mL human FGF2 (Sigma-Aldrich F0291)+1% heparin (Sigma-Aldrich H3393). Cells were cultured in a humidified incubator at 37° C. with 5% CO2.
The inventors used their Si-diborides substrates (described in [200]) for culture of SKOV3 (ATCC® HTB-77™) cancer cells of high invasive potential. Cells were seeded on Si—TiB2 substrates (2×2 cm) at a density of 600/mm^2, and each substrate will be placed in a well of a 24-well dish and cultured in RPMI 1640 with glutamine, 20% FBS, 1% antibiotics, 0.01 mg/mL Insulin, 10 ng/ml FGF2 and 1% heparin 1 over 10 days to establish a monolayer (days 1-3) or allowed to form 3D aggregates (days 4-10). A 2×2 cm substrate can accommodate at least 500, 300 μm circle patterns (aka 500 3D aggregates of ˜150-200 μm diameter and 60-80 μm thickness). Based on preliminary data, the rate of “cellular bridge” formation is 13%/substrate or 50%/aggregate. As shown in FIGS. 9A-C, FIGS. 10A-C and FIG. 11A-B, highly invasive SKOV3 begin as monolayers and then self-assemble to form 3D aggregates. Importantly, the inventors are able to control dynamics of aggregation and size and number of aggregates by tuning pattern geometry and cell seeding density. 3D aggregates of static (compact aggregates without any migratory sequalae) and migratory phenotype (identified via cells migrating away from an aggregate and establishing connections with neighboring aggregates; see FIGS. 12A-B) can be identified post-culturing at day 2, day 4, day 6 and day 8. […] Thus, these capture time points have data on cell monolayers (Day 2), self-assembly (Days 3-4) and compact 3D aggregates (Days 5-8). Migratory 3D aggregate phenotypes are visible at Days 5 with maximum numbers of cellular bridges across aggregates seen at Days 6-7. […]

For `O=C(CCCCCCC(=O)Nc1ccccc1)NO` [SAHA, suberoylanilide hydroxamic acid], the “effect on size of 3D aggregates” value (3 μM SAHA, treatment on day 7 post-seeding) was “reduce the size of 3D aggregates”, the “effect on cellular bridges (invading multicellular microstructures)” value (3 μM SAHA, treatment on day 7 post-seeding, imaged Day 9) was “disassociates invading multicellular microstructures; also recorded: loss of cellular bridges” and the “reduction in size (aggregate depth) post-treatment with SAHA” value (SKOV3 3D aggregates on Si—TiB2, treated day 7 for 48 hours, compared to controls, mean±SEM, n=3, p<0.001) was ~50%.
